Results on 31 compounds are retold here after doi:10.1101/504357v1 (biorxiv, 2018).

The structures appear in SMILES notation. ≈ marks a conversion by molar mass, not a printed value.

For one assay, the system named is S. pyogenes. In words: microbe, parasite or virus in culture. More on the design: species or system Streptococcus pyogenes ATCC 19615. To be noted: Streptococcus pyogenes, read-out: MIC (ug/mL).
Another assay addresses T1, HuDHFR (Homo sapiens, UniProt P00374).
T1 sequence (P00374 1-187): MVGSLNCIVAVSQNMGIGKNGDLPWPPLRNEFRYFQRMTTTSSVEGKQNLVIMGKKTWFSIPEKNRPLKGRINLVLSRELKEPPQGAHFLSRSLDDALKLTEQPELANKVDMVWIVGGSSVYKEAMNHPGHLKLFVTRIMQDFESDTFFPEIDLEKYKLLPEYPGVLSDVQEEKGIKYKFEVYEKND
In words: DHFR inhibition assay. It is filed as biochemical.

Regarding `CCc1nc(N)nc(N)c1C#CC(C)c1cc(-c2cc(C)nc(C)c2)ccc1Cl` (racemic) [compound 10], the MIC in the assay on S. pyogenes came to 0.312 µg/mL (≈ 0.769 µM).
On the same count and under the same terms, for `CCc1nc(N)nc(N)c1C#CCc1cc(OC)cc(-c2ccc(C(=O)O)cc2)c1` [compound 1] the value was at most 0.039 µg/mL; for `CCc1nc(N)nc(N)c1C#C[C@@H](C)c1cc(OC)cc(-c2ccc(C(=O)O)cc2)c1` [compound 2], at most 0.039 µg/mL.
Same read-out and setting: under `CCc1nc(N)nc(N)c1C#C[C@H](C)c1cc(OC)cc(-c2ccc(C(=O)O)cc2)c1` [compound 3] stands at most 0.039 µg/mL; under `CCc1nc(N)nc(N)c1C#C[C@H](C)c1cc(-c2ccc(C(=O)O)cc2)ccc1OC` [compound 4], 0.078 µg/mL (≈ 0.187 µM).
Same read-out and setting: under `CCc1nc(N)nc(N)c1C#C[C@@H](C)c1cc(-c2ccc(C(=O)O)cc2)ccc1OC` [compound 5] stands 0.078 µg/mL (≈ 0.187 µM).
As for `CCc1nc(N)nc(N)c1C#CCc1cc(-c2ccccc2C(=O)O)ccc1OC` [compound 6], the MIC with S. pyogenes came out at 0.625 µg/mL (≈ 1.55 µM).
Still for that read-out and setting: for `CCc1nc(N)nc(N)c1C#CCc1cc(-c2ccc(C(=O)O)cc2)ccc1OC` [compound 7] the value was 0.078 µg/mL (≈ 0.194 µM).
Take `CCc1nc(N)nc(N)c1C#C[C@H](C)c1cc(-c2cc(C)nc(C)c2)ccc1Cl` [compound 9]: at HuDHFR, it took 210 ± 18 nM to reach half-maximal inhibition (IC50). Moreover, in the assay on S. pyogenes, the MIC is at most 0.039 µg/mL.
For `CCc1nc(N)nc(N)c1C#C[C@@H](C)c1cc(-c2cc(C)nc(C)c2)ccc1Cl` [compound 11], the IC50 against HuDHFR was 207 ± 13 nM. In the assay on S. pyogenes, the MIC came out at 0.625 µg/mL (≈ 1.54 µM).
`CCc1nc(N)nc(N)c1C#C[C@H](C)c1cc(-c2cc(C)nc(C)c2)ccc1OC(F)(F)F` [compound 12]: in the assay with S. pyogenes, the MIC amounted to 0.312 µg/mL (≈ 0.685 µM).
For the compound `CCc1nc(N)nc(N)c1C#C[C@@H](C)c1cc(-c2cc(C)nc(C)c2)ccc1OC(F)(F)F` [compound 13], inhibition against HuDHFR was half-maximal at 167 ± 9 nM (IC50). In addition, the MIC in the assay with S. pyogenes was 0.156 µg/mL (≈ 0.342 µM).
Regarding `CCc1nc(N)nc(N)c1C#CCc1cc(-c2cc(C)nc(C)c2)ccc1OC(F)(F)F` [compound 14], the MIC in the assay with S. pyogenes was found to be 0.625 µg/mL (≈ 1.42 µM).
Same read-out and setting: under `CCc1nc(N)nc(N)c1C#CC(C)c1cc(-c2cc(C)nc(C)c2)ccc1OC(F)(F)F` (stereo not drawn) [compound 15] stands 0.312 µg/mL (≈ 0.685 µM).
On the same count and under the same terms, for `CCc1nc(N)nc(N)c1C#CC(C)c1cc(F)cc(-c2cc(C)nc(C)c2)c1` (stereo not drawn) [compound 16] the value was at most 0.039 µg/mL.
In the case of `CCc1nc(N)nc(N)c1C#CC(C)c1cc(-c2ccncc2)cc(F)c1OC` (stereo not drawn) [compound 17], on HuDHFR, inhibition was half-maximal at 234 ± 16 nM (IC50). The MIC with S. pyogenes is at most 0.039 µg/mL.
For the compound `CCc1nc(N)nc(N)c1C#CC(C)c1cccc(-c2cc(C)nc(C)c2)c1` (stereo not drawn) [compound 18], the MIC in the assay on S. pyogenes was at most 0.039 µg/mL.
Still for that read-out and setting: for `CCc1nc(N)nc(N)c1C#CC(C)c1cc2c(c(-c3cc(C)nc(C)c3)c1)OCCO2` (stereo not drawn) [compound 19] the value was at most 0.039 µg/mL; for `CCc1nc(N)nc(N)c1C#CC(C)c1cc2c(c(-c3ccncc3)c1)OCCO2` (stereo not drawn) [compound 20], at most 0.039 µg/mL.
Compound `CCc1nc(N)nc(N)c1C#C[C@@H](C)c1cc2c(c(-c3ccncc3)c1)OCO2` [compound 21] registered an IC50 at HuDHFR of 191 ± 12 nM. For the same compound, the MIC in the assay on S. pyogenes was at most 0.039 µg/mL.
In turn, `CCc1nc(N)nc(N)c1C#C[C@H](C)c1cc2c(c(-c3ccncc3)c1)OCO2` [compound 22] returned an IC50 against HuDHFR of 85 ± 10 nM. In addition, the MIC in the assay on S. pyogenes was at most 0.039 µg/mL.
In the same order, the values of `CCc1nc(N)nc(N)c1C#C[C@@H](C)c1ccc(OC)c(-c2ccncc2)c1` [compound 23] are 68 ± 7 nM and at most 0.039 µg/mL.
The like results for `CCc1nc(N)nc(N)c1C#C[C@H](C)c1ccc(OC)c(-c2ccncc2)c1` [compound 24] were, in that order, 74 ± 7 nM and at most 0.039 µg/mL.
As to `CCc1nc(N)nc(N)c1C#C[C@H](C)c1cc(-c2ccncc2)ccc1OC` [compound 25], the MIC with S. pyogenes was at most 0.039 µg/mL.
Turning to `CCc1nc(N)nc(N)c1C#C[C@@H](C)c1cc(-c2ccncc2)ccc1OC` [compound 26], the MIC with S. pyogenes was at most 0.039 µg/mL.
Turning to `CCc1nc(N)nc(N)c1C#C[C@@H](C)c1cc(OC)cc(-c2ccncc2)c1` [compound 27], the MIC with S. pyogenes was at most 0.039 µg/mL.
Consider `CCc1nc(N)nc(N)c1C#C[C@H](C)c1cc(OC)cc(-c2ccncc2)c1` [compound 28], for which the MIC with S. pyogenes is at most 0.039 µg/mL.
Regarding `CCc1nc(N)nc(N)c1C#CC(C)c1cc(OC)c(OC)c(-c2ccncc2)c1` (stereo not drawn) [compound 29], the MIC in the assay on S. pyogenes was at most 0.039 µg/mL.
The same measure, in the same setting: for `CCc1nc(N)nc(N)c1C#C[C@H](C)c1cc(OC)c(OC)c(-c2ccncc2)c1` [compound 30] the value was at most 0.039 µg/mL; for `CCc1nc(N)nc(N)c1C#CC(C)c1cc(-c2ccncc2)cc2c1OCO2` (stereo not drawn) [compound 31], at most 0.039 µg/mL; for `CCc1nc(N)nc(N)c1C#CC(C)c1cc(O)c(O)c(-c2ccncc2)c1` (stereo not drawn) [compound 32], 0.312 µg/mL (≈ 0.831 µM).

Broadly, the IC50 is the concentration that inhibits the measured activity by half. Lower therefore signals greater potency.
